{"source": "patent US20040071718A1", "about": "“Local nasal immunotherapy for allergen-induced airway inflammation” (priority 2002, published 2004)", "format_in_all_cases": "in vivo", "key": {"[1]": {"tested_on": "Balb/c mice", "test": "Cytokine producing cells in peripheral blood (flow cytometry) after LNIT", "details": "for IL-5/IFN-γ (CD4) / IL-5/IFN-γ (CD8): peripheral blood", "method": "(§1) Male Balb/c mice were obtained from the National Laboratory Breeding Research Center in Taiwan and were raised in a specific pathogen-free environment. The mice used were between six and eight weeks of age. Groups of six mice were caged separately according to their treatment.\n(§2) Mice were immunized by way of an intraperitoneal (IP) injection of 1 μg/0.1 mL rDp2 emulsified in 4.0 mg/0.062mL aluminum hydroxide Al(OH)3 (Whitehall Lab Ltd. Punchbowl, NSW, Australia) on day 0 and day 7. Following immunization, local nasal immunotherapy (LNIT) was conducted daily from day 14 to day 35 with Dp2 28-40, Dp2 28-40A, FIP alone or FIP mixed with either Dp2 28-40 or Dp2 28-40A (FIP, 50 μg/mouse/day; Dp2 peptide, 1 μg/20 μL) in PBS with 10% glycerol. Normal saline (NS) and irrelevant allergen Bt were used as a negative control. […] On day 28, mice were lightly anesthetized with an IP injection of 60 mg/kg of sodium pentobarbital (Sigma Chemical Co., St Louis, Mo., U.S.A.) and inoculated intratracheally (IT) with 1 μg/50 μL of rDp 2 on day 28 and day 35. Two days subsequent to the second IT inoculation, the mice were sacrificed following the assessment of their pulmonary function (FIG. 1).\nTwo-color staining methods were used to analyze IFN-γ and IL-5 expression amongst CD4 cells. Leukocytes derived from peripheral blood (PBL) were stimulated with PMA (50 ng/mL), ionomycin (2 μM) and GolgiStop (Cytofix/Cytoperm Plus Pharmingen San Diego, Calif., U.S.A.) for five hours and then washed twice using PBS. The cells were stained with CD4-PerCP, CD8-FITC or IgG1-FITC (PharMingen) at room temperature (RT) for 30 minutes and then washed. Cells were fixed with cytofix/cytoperm at RT for 30 minutes and then stained with anti-cytokine antibody and IgG2a-PE (PharMingen) at RT for 30 minutes and subsequently washed. Both IgG1-FITC and IgG2a-PE were purchased from the same manufacturer as the anticytokine antibodies and the negative controls. Cells were resuspended in 0.5 mL PBS containing 0.1% w/v sodium azide. Mean fluorescence was measured by means of Becton Diskinson flow cytometry (Becton Diskinson, Calif., U.S.A.). A total of 2,000 cells was analyzed for each sample."}, "[2]": {"tested_on": "Balb/c mice", "test": "IL-5 and IFN-γ levels in sera and BALF (ELISA) after LNIT", "details": "Example 2, mean ± SEM, n = 6", "method": "as §1, §2\nIFN-γ and IL-5 were measured using commercially-available ELISA kits, using a specific mouse monoclonal Ab that recognized different epitopes of the cytokine molecules. The lowest detector range was 10 pg/mL. Given that the BALF was considered to be at too diluted a concentration, IL-4 was not measured."}, "[3]": {"tested_on": "Balb/c mice", "test": "Leukocyte subpopulations in BALF of rDp2-sensitized mice after local nasal immunotherapy (LNIT)", "details": "BALF", "method": "Male Balb/c mice were obtained from the National Laboratory Breeding Research Center in Taiwan and were raised in a specific pathogen-free environment. The mice used were between six and eight weeks of age. Groups of six mice were caged separately according to their treatment. Recombinant Dermatophoides pteronyssinus group 2 (rDp2) was prepared as previously described(Tsai J J, et al. Int Arch Allergy Immunol 2000;121:205-10). Dp2 28-40 and Dp2 28-40A were obtained from Dr. Jonathan Lamb (Respiratory Medicine Unit, Edinburgh University, Medical School, Edinburgh, UK) (Verhoef A, and Lamb J R. J Immunol 2000;164:6034-6040). FIP was obtained from Dr. Ko Jiunn-Liang (Institute of Toxicology, Chung Shan Medical University, Taichung, R O C) (J L Ko, et al. Eur. J. Biochem. 1995;228:244-249).\nas §2\nSubsequent to pulmonary function measurement having been completed, bronchoalveolar lavage (BAL) was performed using the following procedure. BAL fluids were collected with lmL sterile endotoxin-free saline washes of each lung via the trachea for each mouse. BAL cells were washed once with PBS by centrifugation at 200×g at 4° C. Subsequent to washing, the cells were resuspended in RPMI-1640 (Sigma Chemical Co.). The total leukocyte count in BAL fluids was determined using a hemocytometer. The BAL fluids were aspirated and stored at −70° C. until needed for assay purposes. Subsequent to total leukocyte counting, a cytospin preparation of 100 μL BAL fluids (2×10^5 cells/mL) was conducted, the cells being cytocentrifuged directly onto glass slides at 350 r.p.m. for five minutes using a Cytospin 3 cytocentrifuge (Shandon Scientific Limited, Astmoor, Runcorn, UK), and then stained with Liu stain (Tonyar Diagnostic Inc, Taipei & Hien, Taiwan). The differential counts were performed for a total of 200 leukocyte cells."}, "[4]": {"details": "Example 1, percentage of positive stained cells in the PBMC of six mice"}, "[5]": {"details": "Example 2, percentage of total leukocytes in the peripheral blood of six mice"}, "[6]": {"details": "Example 1, LNIT day 14-35, rDp2 IT challenge, mean ± SEM of six animals"}, "[7]": {"details": "Example 2 (FIP study), mean ± SEN of six mice"}}, "note": "Marks after values point to notes of the source that are not given here."}
{"smiles": "C[C@@H]1C[C@H]2[C@@H]3CCC4=CC(=O)C=C[C@]4(C)[C@@]3(F)[C@@H](O)C[C@]2(C)[C@@]1(O)C(=O)CO", "note": "[DEX, Dexamethasone, reference compound]", "values": [{"measurement": "CD4^+", "setting": "[1]; [4]", "value": 45.6, "unit": "percentage"}, {"measurement": "CD8^+", "setting": "[1]; [4]", "value": 7.0, "unit": "percentage"}, {"measurement": "IFN-γ^+/CD4^+", "setting": "[1]; [4]", "value": 7.9, "unit": "percentage"}, {"measurement": "IFN-γ^+/CD8^+", "setting": "[1]; [4]", "value": 7.9, "unit": "percentage"}, {"measurement": "IL-5^+/CD4^+", "setting": "[1]; [4]", "value": 9.2, "unit": "percentage"}, {"measurement": "IL-5^+/CD8^+", "setting": "[1]; [4]", "value": 8.2, "unit": "percentage"}, {"measurement": "IL-5/IFN-γ (CD4)", "setting": "[1]; Example 1, ratio of IL-5 to IFN-γ producing CD4 cells", "value": 1.2}, {"measurement": "IL-5/IFN-γ (CD8)", "setting": "[1]; Example 1, ratio of IL-5 to IFN-γ producing CD8 cells", "value": 1.0}, {"measurement": "CD4", "setting": "[1]; [5]", "value": 51.2, "unit": "percentage"}, {"measurement": "CD8", "setting": "[1]; [5]", "value": 7.9, "unit": "percentage"}, {"measurement": "IFN-γ^+/CD4^+", "setting": "[1]; [5]", "value": 17.7, "unit": "percentage"}, {"measurement": "IFN-γ^+/CD8^+", "setting": "[1]; [5]", "value": 14.1, "unit": "percentage"}, {"measurement": "IL-5^+/CD4^+", "setting": "[1]; [5]", "value": 15.8, "unit": "percentage"}, {"measurement": "IL-5^+/CD8^+", "setting": "[1]; [5]", "value": 14.1, "unit": "percentage"}, {"measurement": "IL-5/IFN-γ (CD4)", "setting": "[1]; Example 2, ratio, CD4 cells", "value": 0.9}, {"measurement": "IL-5/IFN-γ (CD8)", "setting": "[1]; Example 2, ratio, CD8 cells", "value": 1.0}, {"measurement": "IFN-γ", "setting": "[2]; BALF", "value": "9.9 ± 0.6", "unit": "pg/mL"}, {"measurement": "IL-5", "setting": "[2]; BALF", "value": "19.2 ± 1.2", "unit": "pg/mL"}, {"measurement": "IFN-γ", "setting": "[2]; Sera", "value": "46.2 ± 3.4", "unit": "pg/mL"}, {"measurement": "IL-5", "setting": "[2]; Sera", "value": "138.0 ± 16.6", "unit": "pg/mL"}, {"measurement": "Eosinophil", "setting": "[3]; [6]", "value": "3.2 ± 0.4* 10^4 cells/mL"}, {"measurement": "Lymphocyte", "setting": "[3]; [6]", "value": "9.4 ± 1.5* 10^4 cells/mL"}, {"measurement": "Macrophage", "setting": "[3]; [6]", "value": "29.2 ± 4.4* 10^4 cells/mL"}, {"measurement": "Neutrophil", "setting": "[3]; [6]", "value": "6.6 ± 1.0* 10^4 cells/mL"}, {"measurement": "Total cell", "setting": "[3]; [6]", "value": "46.4 ± 2.2* 10^4 cells/mL"}, {"measurement": "Eosinophil", "setting": "[3]; [7]", "value": "3.8 ± 0.5 ×10^4/mL"}, {"measurement": "Lymphocyte", "setting": "[3]; [7]", "value": "15.3 ± 0.6 ×10^4/mL"}, {"measurement": "Macrophage", "setting": "[3]; [7]", "value": "28.3 ± 1.7 ×10^4/mL"}, {"measurement": "Neutrophil", "setting": "[3]; [7]", "value": "8.0 ± 0.8 ×10^4/mL"}]}
